The values below come from US9359311B2, “Substituted aromatic oligomers” (NEUROSCIOS GMBH, priority 2011, dated 2016).

For experiment [1], the system named is amyloid depositions (plaques). Description: Plaque number and plaque area in hAPPSL Tg mice (ThioflavinS staining). In kind it is in vivo, mouse. The conditions noted are these: twice daily i.p., 90 days, vs vehicle. The protocol:
(§1) Vehicle: Phosphate Buffered Saline (PBS; 6.7 mM PO4, 155 mM NaCl, pH=7.3-7.5) (BioWhittaker PBS from Lonza).
(§2) Test Item (T.I.): p-FTAA and P9707_003, diluted in vehicle from stock solution in deionized water (10 mg/ml).
(§3) Tg hAPPSL: Transgenic hAPPSL mice over-expressing hAPP(751) under the control of the murine Thy-1 promoter with a C57BL/6xDBA background.
48 hAPP Tg mice plus 4 reserves allocated to 4 different treatment groups were treated with either vehicle only (control), p-FTAA or P9707_003. As an additional control, 12 nTg littermates of the hAPPSL mice (plus 1 reserve) were treated with vehicle only. Starting at 6.5 months of age, female hAPPSL mice were treated with vehicle only, p-FTAA (dosage: 1 or 10 mg/kg/day) or P9707_003 (dosage: 10 mg/kg/day) for 90 days. The Test Items (T.I.s) were administered in Vehicle. Compound and vehicle were administered twice daily i.p. for 90 days. Tg hAPPSL mice with a C57BL/6xDBA background and corresponding nTg littermates at an age of 6.5 months (+2 weeks) were randomly assigned to the treatment groups. […]
Plaque load was quantified by staining with ThioflavinS staining of beta-sheet structures in a double incubation.
For determination of amyloid depositions 5 slices (1 from each level) per brain were stained and screened. Region areas (hippocampus and cortex) were measured and plaque surface area, number of plaques and mean size of objects within each region were quantified separately using automated image analysis software (Image Pro Plus, version 6.2).
Mosaic images for plaque load quantification including the whole cortex and hippocampus were recorded on a Zeiss AxioImager.Z1 microscope using high aperture lenses and an AxioVision 4.8 software driven AxioCam MRm (10× lens, 1× optocoupler). Plaques for AT180 quantifcation were imaged with a 20× lens. […]
Descriptive statistical analysis was performed on all evaluated parameters, Kolmogorov Smirnov test were performed to test normal distribution of data. […]

In experiment [2] the test system is PHF-tau doubly-phosphorylated at Thr231 and Ser235. Description: Phosphorylation of Tau in neurites crossing amyloid plaques, AT180 IHC, hAPPSL Tg mice. Format: in vivo, mouse. The protocol:
as §1, §2, §3
48 hAPP Tg mice plus 4 reserves allocated to 4 different treatment groups were treated with either vehicle only (control), p-FTAA or P9707_003. As an additional control, 12 nTg littermates of the hAPPSL mice (plus 1 reserve) were treated with vehicle only. Starting at 6.5 months of age, female hAPPSL mice were treated with vehicle only, p-FTAA (dosage: 1 or 10 mg/kg/day) or P9707_003 (dosage: 10 mg/kg/day) for 90 days. The Test Items (T.I.s) were administered in Vehicle. Compound and vehicle were administered twice daily i.p. for 90 days. Tg hAPPSL mice with a C57BL/6xDBA background and corresponding nTg littermates at an age of 6.5 months (+2 weeks) were randomly assigned to the treatment groups.
Histological evaluations were performed with six randomly chosen cryo-frozen brain hemispheres of treatment groups PBS Control, p-FTAA 1 mg/kg/day, p-FTAA 10 mg/kg/day, and P9707_003 10 mg/kg/day.
15 cryo-sections per level (altogether 5 levels), each 10 μm thick (Leica CM 3050S) were sagittally cut. Brain levels were chosen according to the morphology atlas “The Mouse Brain” from Paxinos and Franklin (2nd edition). The cutting of the five levels started with a random slice, then sampling was continued uniformly and systematically, always retaining 15 slices per level in series and discarding 100 μm in between the levels.
TAU phosphorylation was visualized immunohistochemically using the AT180 antibody. Clone AT180 recognizes PHF-tau doubly-phosphorylated at Thr231 and Ser235.
For determination of amyloid depositions 5 slices (1 from each level) per brain were stained and screened. From each slice five images were captured from 5 defined areas in the brain. The order of these positions reflect the time course of plaque deposition in the APPsl model, which starts in the frontal cortex (P11) at the age of 3 months and then spreads to the medial (P12) and dorsal cortex over age. At six months of age, plaques can be found in the medial cortex (P13), from then plaque load spreads into the hippocampal formation with hot spots in the subiculum (P14) and the dentate gyrus (P15) at the age of nine months.
Mosaic images for plaque load quantification including the whole cortex and hippocampus were recorded on a Zeiss AxioImager.Z1 microscope using high aperture lenses and an AxioVision 4.8 software driven AxioCam MRm (10× lens, 1× optocoupler). Plaques for AT180 quantifcation were imaged with a 20× lens. Detail images for qualitative figures are 40× image stacks collapsed to 2D by the extended depth of field function of AxioVision software.
Descriptive statistical analysis was performed on all evaluated parameters, Kolmogorov Smirnov test were performed to test normal distribution of data. Data in graphs are represented as mean±SEM.

Experiment [3] addresses T1, biotinylated Aβ1-42 (Homo sapiens, UniProt P05067).
T1 construct: To assure monomerisation of biotinylated Aβ1-42 (Anaspec #23523-0.5) the peptide was thoroughly monomerised; purchased Anaspec 23523-0.5
The experiment is described as follows: Inhibition of Abeta oligomerisation (biotinylated Aβ1-42, neutravidin plate, streptavidin-HRP). Format: biochemical. The conditions noted are these: inhibition of Aβ1-42 aggregation, approximately 12 nM Aβ1-42, PBS pH 7.4, 2% DMSO, 30 min RT.

Experiment [4] deals with primary chicken neurons. Description: Inhibition of Abeta 1-42 toxicity on primary chicken neurons (MTT). In kind it is cell-based. Further details: key: No: no effect; +: minor positive effect on cell viability in the presence of aggregated Aβ 1-42; ++: medium positive effect on cell viability in the presence of aggregated Aβ 1-42; +++: strong positive effect on cell viability in the presence of aggregated Aβ 1-42. The settings on record: 10 μM Aβ1-42 aggregated together with compound for 48 h. The procedure:
One-day-old fertilized eggs are stored under appropriate conditions until start of breeding. On embryonic day 0 eggs are transferred to the breeding incubator and under turning, kept at 37.8° C. and 55% humidity until embryonic day eight. Neurons are prepared as follows: In short, embryos are transferred to a plastic dish, and decapitated. Both brain hemispheres are removed, collected and any loose tissue removed. Hemispheres are mechanically dissociated and 4.8×10^4 cells per well (96-well plates) are seeded in a volume of 160 μl.
Aβ1-42 (MW 4514.1) was obtained from American Peptide Company as a lyophilized powder. A stock solution of 340 μM Aβ1-42 was prepared in 50 mM Tris-Buffer, 150 mM NaCl, pH7.6 according to the manufacturer's instructions. After sonication, the stock solution is diluted 1:1 with the test compounds to obtain a concentration of 170, 17 and 1.7 μM. After aggregation at 4° C. for 48 h, the solutions are sonicated again prior to application to the cells. The final concentration of Aβ1-42 applied to the primary chicken neurons is 10 μM.
Aβ1-42 aggregated together with compound for 48 hrs was applied to chicken neurons at DIV4 (days in vitro) and analyzed at DIV10 (144 hrs) and all others were applied to chicken neurons at DIV6 and analysed at DIV10 (96 hrs).
Viability of cultures is determined by the MTT assay. The MTT assay allows for the measurement of the mitochondrial dehydrogenase activity which reduces yellow MTT to dark blue formazan crystals. Since this reaction is catalyzed in living cells only this assay is used for the determination of cell viability. MTT solution is added to each well in a final concentration of 0.5 mg/ml. After 2 hours the MTT containing medium is aspired. Cells are lysed in 3% SDS and the formazan crystals are dissolved in isopropanol/HCl. Optical density is measured with a plate-reader at wavelength 570 nm. Cell survival rate is expressed as a percentage of optical density (OD) relative to control cells not treated with Aβ or compound.

Where [5] appears, read: P9707_003 10 mg/kg/day, p-FTAA 1 or 10 mg/kg/day.

One may read the IC50 as the concentration at which inhibition is half-maximal.

“Also recorded” adds a separate entry of the source.

T1 sequence (P05067 672-713 limits assumed): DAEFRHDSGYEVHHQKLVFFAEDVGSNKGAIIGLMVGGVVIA

Turning to `O=C(O)Cc1ccsc1-c1ccc(-c2sc(-c3ccc(-c4cc(CC(=O)O)c(-c5ccc(-c6sccc6CC(=O)O)s5)s4)s3)cc2CC(=O)O)s1` [Example 1, 2-(2-{5-[3-(Carboxymethyl)-5-{5-[4-(carboxymethyl)-5-{5-[3-(carboxymethyl)thiophen-2-yl]thiophen-2-yl}thiophen-2-yl]thiophen-2-yl}thiophen-2-yl]thiophen-2-yl}thiophen-3-yl)acetic acid], the “reduction of plaque number in the hippocampus” value in experiment [1] (10 mg/kg/day, ThioflavinS) is 54%. Moreover, in experiment [1] (setting [5]), the “hippocampal plaque area percentage (ThioflavinS)” value was “significantly lower plaque load; also recorded: reduced”. In experiment [1] (setting [5]), the “number of ThioflavinS positive objects (plaque number) in the hippocampus” value is given as “reduced object number; also recorded: highly significant reduced”. The AT180 load entry in experiment [2] (10 mg P9707_003 treatment, plaque sides 2 and 4) is recorded as “significant reduction”. Besides, the “AT180 IR in plaques of younger history of origin (hippocampal formation, subiculum, dentate gyrus)” value in experiment [2] (90 days i.p., hAPPSL Tg mice) is reported as “drastically reduced”. Further, in experiment [2] (P9707_003 10 mg/kg/day, 90 days i.p.), the “AT180 load at hippocampal plaques, reduced to” value is listed as “approximately 45%”. The “reduction of AT180” value in experiment [2] (P9707_003 10 mg/kg/day, 90 days i.p., positions 4 and 5) is “more than 40%”. This compound gave an IC50 in experiment [3] of 794 nM. Besides, the “Rescue of Abeta toxicity (MTT)” value in experiment [4] (Conc. 0.1 μM) is “no”; in experiment [4] (Conc. 1 μM) it was “+++”; in experiment [4] (Conc. 10 μM), “+++”.
